The values that follow come from ChEMBL document CHEMBL1201862, “PubChem BioAssay data set” (2004).

Values joined by “and” are separate entries in the source; they are usually repeats but may differ in a detail not shown here. Equal values may be shown once. Active and inactive are the calls of the source.

As usually defined, the AC50 is the midpoint of the concentration-response curve, whichever way the signal moves. In general, EC50 refers to the concentration that produces a half-maximal response. In general, CC50 refers to the concentration at which the toxic effect on the cells reaches its halfway point. As usually defined, the IC50 is the concentration at which inhibition is half-maximal.

Some targets named below: Cytochrome P450 2D6 (Homo sapiens, UniProt P10635); Cytochrome P450 2C9 (Homo sapiens, UniProt P11712); Cytochrome P450 3A4 (Homo sapiens, UniProt P08684).
For data set [1], the target named is FAD-linked sulfhydryl oxidase ALR (Homo sapiens, UniProt P55789). As to the kind of experiment: ALR-catalysed DTT oxidation blockers – biochemical, H2O2 detection, luminescence, cherry-pick, dose response (AID 493248).
The next data set has as its target T1, Cytochrome P450 1A2 (Homo sapiens, UniProt P05177).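 Note: PubChem cytochrome P450 panel assay, CYP1A2 panel member.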
T1 sequence (P05177 whole entry): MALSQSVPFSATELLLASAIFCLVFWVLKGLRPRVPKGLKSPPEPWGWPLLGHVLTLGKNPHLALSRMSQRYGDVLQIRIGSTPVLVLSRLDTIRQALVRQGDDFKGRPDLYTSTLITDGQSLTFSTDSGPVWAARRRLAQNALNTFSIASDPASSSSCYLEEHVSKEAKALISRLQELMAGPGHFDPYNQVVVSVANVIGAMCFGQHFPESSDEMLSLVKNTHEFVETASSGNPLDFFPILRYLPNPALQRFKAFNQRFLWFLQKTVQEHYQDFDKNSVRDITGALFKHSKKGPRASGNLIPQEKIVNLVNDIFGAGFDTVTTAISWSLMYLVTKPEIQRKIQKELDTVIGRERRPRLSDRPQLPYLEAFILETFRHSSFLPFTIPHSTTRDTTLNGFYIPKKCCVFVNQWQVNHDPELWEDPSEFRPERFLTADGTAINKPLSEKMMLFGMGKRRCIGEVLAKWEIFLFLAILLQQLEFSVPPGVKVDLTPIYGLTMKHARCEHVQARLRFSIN

The nature of data set [2]: Luminescence Cell-Based Dose Response HTS to Identify Activators of Luciferase Translation or Activity in H4 […] Cells. [Related pubchem assays: 1829 (Project Summary), 1814 (Primary HTS)]. It counts as functional.
The next data set relates to H4. As to the kind of experiment: Luminescence Cell-Based Dose Response HTS to Identify Activators of 5'UTR Stem-Loop Driven Prion Protein mRNA Translation in H4 Neuroglioblastoma Cells. [Related pubchem assays: 1829 (Project Summary), 1814 (Primary HTS)]. The note with it: Homo sapiens. The class given is functional.
Data set [3] is described as follows: Luminescence Cell-Based Dose Confirmation HTS to Identify Activators of 5'UTR Stem-Loop Driven Alpha-Synuclein mRNA Translation in H4 Neuroglioblastoma Cells. [Related pubchem assays: 1829 (Project Summary), 1814 (Primary HTS)]. The class given is functional.
The next data set has as its target Cytochrome P450 2C19 (Homo sapiens, UniProt P33261). Put plainly: Cytochrome panel assay with activity outcomes. Panel member name: p450-cyp2c19 Compounds with AC50 equal or less than 10 uM are considered active. It counts as functional.
A short description of data set [4]: viability of uninfected HEp-2 cells – cell-based, HTS, cytotoxicity control for RSV inhibitor project, dose response (AID 2410). The class given is functional. The note with it: human respiratory syncytial virus.
Data set [5] deals with T2, Rac GTPase-activating protein 1 (Homo sapiens, UniProt Q9H0H5).
T2 sequence (Q9H0H5 whole entry): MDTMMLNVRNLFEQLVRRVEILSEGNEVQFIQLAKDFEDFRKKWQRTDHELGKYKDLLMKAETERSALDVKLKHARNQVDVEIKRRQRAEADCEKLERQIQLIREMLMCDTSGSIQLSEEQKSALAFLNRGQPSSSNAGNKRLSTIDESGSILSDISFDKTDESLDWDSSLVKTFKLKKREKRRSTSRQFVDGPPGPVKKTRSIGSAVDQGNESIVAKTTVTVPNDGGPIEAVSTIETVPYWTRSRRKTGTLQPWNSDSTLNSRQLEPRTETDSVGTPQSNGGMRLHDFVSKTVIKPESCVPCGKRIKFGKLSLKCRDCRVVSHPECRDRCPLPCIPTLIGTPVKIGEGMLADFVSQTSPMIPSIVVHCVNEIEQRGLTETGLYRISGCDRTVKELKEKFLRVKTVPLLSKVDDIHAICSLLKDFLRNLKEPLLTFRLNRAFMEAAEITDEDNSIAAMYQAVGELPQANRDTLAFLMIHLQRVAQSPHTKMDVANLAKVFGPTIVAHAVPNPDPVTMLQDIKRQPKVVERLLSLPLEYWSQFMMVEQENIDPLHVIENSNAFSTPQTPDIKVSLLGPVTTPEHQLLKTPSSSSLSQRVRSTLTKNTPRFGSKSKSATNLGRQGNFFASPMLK
As to the kind of experiment: blockers of MgcRacGAP-driven Rac1 GTP hydrolysis – biochemical, ADP Hunter fluorescence, primary and confirmatory, confirmation (AID 624330). The class given is functional.

The nature of data set [6]: Luminescence Cell-Based Dose Retest to Confirm Inhibitors of Cancer Stem Cells. [Related pubchem assays (depositor defined):AID2717, AID2721]. It counts as functional. The note with it: Homo sapiens.

Chain of Cytochrome P450 2D6 (P10635 whole entry): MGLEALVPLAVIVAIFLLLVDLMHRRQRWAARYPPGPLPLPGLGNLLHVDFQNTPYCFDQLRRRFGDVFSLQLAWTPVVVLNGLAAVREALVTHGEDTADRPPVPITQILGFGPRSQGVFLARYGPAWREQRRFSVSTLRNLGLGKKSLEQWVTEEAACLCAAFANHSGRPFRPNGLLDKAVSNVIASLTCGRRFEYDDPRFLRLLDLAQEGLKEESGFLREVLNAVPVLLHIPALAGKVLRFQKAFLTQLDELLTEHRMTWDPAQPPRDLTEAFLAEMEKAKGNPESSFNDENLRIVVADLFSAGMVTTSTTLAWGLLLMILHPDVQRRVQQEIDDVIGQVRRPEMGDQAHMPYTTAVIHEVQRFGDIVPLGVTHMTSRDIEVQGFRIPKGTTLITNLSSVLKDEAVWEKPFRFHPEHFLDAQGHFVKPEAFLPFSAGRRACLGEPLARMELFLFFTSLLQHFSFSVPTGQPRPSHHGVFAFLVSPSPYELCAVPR
Chain of Cytochrome P450 2C9 (P11712 whole entry): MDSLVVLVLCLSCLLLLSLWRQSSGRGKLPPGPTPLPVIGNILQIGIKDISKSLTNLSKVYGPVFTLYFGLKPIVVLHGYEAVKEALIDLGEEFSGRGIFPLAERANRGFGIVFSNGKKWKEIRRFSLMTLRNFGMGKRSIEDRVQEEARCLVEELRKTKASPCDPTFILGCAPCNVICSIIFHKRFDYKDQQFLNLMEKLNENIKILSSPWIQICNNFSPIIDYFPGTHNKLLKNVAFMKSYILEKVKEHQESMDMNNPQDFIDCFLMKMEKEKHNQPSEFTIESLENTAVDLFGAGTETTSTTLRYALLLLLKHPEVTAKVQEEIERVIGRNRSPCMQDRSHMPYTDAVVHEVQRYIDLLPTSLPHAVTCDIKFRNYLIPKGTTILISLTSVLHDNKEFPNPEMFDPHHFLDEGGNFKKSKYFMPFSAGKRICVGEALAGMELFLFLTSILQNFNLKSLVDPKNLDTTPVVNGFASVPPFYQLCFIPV
Chain of Cytochrome P450 3A4 (P08684 whole entry): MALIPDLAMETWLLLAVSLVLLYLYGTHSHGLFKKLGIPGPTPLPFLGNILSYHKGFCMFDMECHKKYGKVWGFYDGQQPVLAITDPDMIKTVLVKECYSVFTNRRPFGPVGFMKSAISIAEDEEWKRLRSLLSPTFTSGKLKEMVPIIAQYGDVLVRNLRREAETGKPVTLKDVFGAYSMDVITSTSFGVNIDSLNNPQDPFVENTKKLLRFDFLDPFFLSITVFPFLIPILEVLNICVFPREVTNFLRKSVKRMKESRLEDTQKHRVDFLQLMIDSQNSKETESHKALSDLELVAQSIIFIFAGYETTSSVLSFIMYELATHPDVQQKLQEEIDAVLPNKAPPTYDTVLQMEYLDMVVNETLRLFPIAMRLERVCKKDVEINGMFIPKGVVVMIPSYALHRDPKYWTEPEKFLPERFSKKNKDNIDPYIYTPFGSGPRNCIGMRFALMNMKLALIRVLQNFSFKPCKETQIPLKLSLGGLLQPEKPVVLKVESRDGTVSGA
Chain of FAD-linked sulfhydryl oxidase ALR (P55789 whole entry): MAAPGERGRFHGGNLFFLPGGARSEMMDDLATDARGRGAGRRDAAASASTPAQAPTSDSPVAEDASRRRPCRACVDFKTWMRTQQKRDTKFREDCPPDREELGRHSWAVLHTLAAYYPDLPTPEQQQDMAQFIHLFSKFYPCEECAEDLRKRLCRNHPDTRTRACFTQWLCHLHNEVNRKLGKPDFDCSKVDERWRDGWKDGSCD
Chain of Cytochrome P450 2C19 (P33261 whole entry): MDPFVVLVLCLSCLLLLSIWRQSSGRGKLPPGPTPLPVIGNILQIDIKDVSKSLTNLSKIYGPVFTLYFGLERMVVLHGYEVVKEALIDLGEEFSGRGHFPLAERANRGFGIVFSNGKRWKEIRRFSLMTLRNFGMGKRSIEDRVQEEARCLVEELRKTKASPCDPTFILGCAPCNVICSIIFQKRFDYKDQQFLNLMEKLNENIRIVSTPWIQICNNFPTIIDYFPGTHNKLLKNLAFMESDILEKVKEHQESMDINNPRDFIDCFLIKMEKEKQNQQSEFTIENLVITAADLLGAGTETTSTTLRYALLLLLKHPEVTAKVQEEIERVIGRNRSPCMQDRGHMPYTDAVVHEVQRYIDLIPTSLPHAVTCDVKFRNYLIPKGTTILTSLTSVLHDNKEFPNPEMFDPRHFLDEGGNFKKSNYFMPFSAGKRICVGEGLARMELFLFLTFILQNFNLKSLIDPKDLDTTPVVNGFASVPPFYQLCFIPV

In the case of `CC(C)=NNc1nc(-c2ccc(N3C(=O)CCC3=O)cc2)cs1`, the half-maximal activity concentration (AC50) in data set [1] was 0.119 µM (active).

`Cc1cccc(NC(=O)CSc2nc(COc3ccccc3)nc3ccccc23)c1C`: the concentration at half-maximal activity (AC50) on Cytochrome P450 1A2 and at Cytochrome P450 2D6 was 12.6 µM (inconclusive) in each case.

Take `O=C(CN1C(=O)NC2(CCCC2)C1=O)Nc1cc(Cl)ccc1N1CCCC1`: the concentration at half-maximal activity (AC50) in [1] is 0.244 µM (active).

As for `COc1ccc(C(=O)N2CCN=C2SCc2cccnc2)c(OC)c1`, the AC50 in data set [1] was 0.067 µM (active).

Take `Cc1cccc(NC(=O)c2cnc3sccn3c2=O)n1`: the concentration giving a half-maximal response (EC50) in data set [2] was 32.9 µM (active); in the data set with H4, 63.9 µM (active); in data set [3], 0.125 µM (active).

`C[C@H](CN(C)C)C(O)(c1ccccc1)c1ccccc1`: the results for the AC50 entry on Cytochrome P450 2C19 and on Cytochrome P450 2D6 were “inconclusive” and 3.98 µM (inconclusive), respectively.

With `O=C(CN1CCN(c2ccccc2O)CC1)NCCCc1ccccc1`, the AC50 in [1] was 0.301 µM (active).

In the case of `CCCn1c(S)nnc1C(C)NC(=O)c1ccccc1` (stereo not drawn), the AC50 in data set [1] was 3 µM (active).

As for `CCCSC1=C(C#N)C(c2cccnc2)C(C(=O)OCC)=C(c2ccccc2)N1` (stereo not drawn), the AC50 on Cytochrome P450 2D6 is 39.8 µM (inconclusive).

Consider `Oc1c2nc3ccccc3c-2ncn1CCC1=CCCCC1`, for which the figures for the EC50 (in data set [2]; in the data set with H4; in data set [3]) were 46.6 µM (active), 1.72 µM (active) and 43.3 µM (active), respectively.

`O=C(Nc1ccc(N2CCCCC2)cc1)C(Cl)c1ccccc1` (stereo not drawn): the concentration for a half-maximal effect (EC50) was 0.125 µM (active) in data set [2] and 12.8 µM (active) with H4.

Take `O=C(Nc1ccc(Nc2ccccc2)cc1)c1ccco1`: the half-maximal activity concentration (AC50) in data set [1] was 5.94 µM (active). Also, the CC50 in data set [4] was 45.1 µM (active).

Consider `COc1ccc2c(c1)C(=O)CC(c1ccc3c(c1)OCCO3)O2` (stereo not drawn), for which the half-maximal effective concentration (EC50) was 42 µM (active) in data set [2], 13.9 µM (active) with H4 and 7.88 µM (active) in data set [3].

For the molecule `CCN(CC)CCNC(=O)C(C)c1nn(C)c(=O)c2ccccc12` (stereo not drawn), the AC50 on Cytochrome P450 2D6 is 20 µM (inconclusive).

As to `O=C(O)c1nc2ccccc2nc1C(=O)O`, the 50% effective concentration (EC50) was 25.5 µM (active) in data set [2], > 120 µM (not active) with H4 and 11.1 µM (active) in data set [3].

Regarding `COC(=O)C1CC1C(NC(=O)[C@H]1CCCCN1)c1ccccc1` (stereo partly drawn), the AC50 at Cytochrome P450 2C9 and on Cytochrome P450 2D6 was 20 µM (inconclusive) each time.

Turning to `O=C(COC(=O)c1ccc2[nH]c3c(c2c1)CCCC3)Nc1ccccc1`, the values for the EC50 (in data set [2]; in the data set on H4; in data set [3]) were 41.9 µM (active), > 120 µM (not active) and 5.12 µM (active), respectively.

`CC(Cc1ccccc1)C(=O)NCc1ccccn1` (stereo not drawn): the half-maximal activity concentration (AC50) at Cytochrome P450 2D6 was 39.8 µM (inconclusive).

For `N/C(CSS(=O)(=O)O)=N\[C@@H]1C[C@H]2CC[C@@H]1C2`, the half-maximal activity concentration (AC50) at Cytochrome P450 1A2 was 10 µM (inconclusive); on Cytochrome P450 2C9, 7.94 µM (inconclusive); at Cytochrome P450 2C19, “inconclusive”; on Cytochrome P450 2D6, 7.94 µM (inconclusive).

Turning to `COc1ccccc1CNc1nc(-c2cccnc2)nc2ccccc12`, the concentration at half-maximal activity (AC50) is 1.26 µM (inconclusive) on Cytochrome P450 3A4 and 25.1 µM (inconclusive) at Cytochrome P450 2D6.

As to `Cn1c(-c2ccc3c(c2)OCO3)cnc1NCc1cccc(O)c1`, the AC50 in data set [1] was 2.49 µM (active).

Regarding `O=C(Cn1c(=S)nc2ccccn21)N1CCc2ccccc2C1`, the values for the EC50 (in data set [2]; in the data set on H4; in data set [3]) were 30.2 µM (active), 10.3 µM (active) and 5.67 µM (active), respectively.

For the molecule `C=CCn1c(S)nnc1C(C)NC(=O)c1cccc(C)c1` (stereo not drawn), the AC50 in data set [1] is 4.01 µM (active).

Consider `COc1ccc(-c2[nH]nc(C)c2-c2ccccc2OC)c(O)c1`, for which the AC50 in data set [1] is < 0.005 µM (active).

On to `O=C(N/N=C\c1cccc(O)c1)c1ccncc1`, for which, on Cytochrome P450 2D6, the AC50 is 3.16 µM (inconclusive).

On to `CSc1nnc2c(n1)OC(C)N(C(=O)c1ccccc1)c1ccccc1-2` (stereo not drawn), for which the half-maximal activity concentration (AC50) at Cytochrome P450 1A2 is 10 µM (inconclusive); at Cytochrome P450 2C9, 31.6 µM (inconclusive). Further, the EC50 in [2] was > 120 µM (not active); with H4, > 120 µM (not active); in data set [3], 15.4 µM (active).

`CC(C(=O)Nc1ccccc1C(F)(F)F)N1CCN(C)CC1` (stereo not drawn): the half-maximal inhibitory concentration (IC50) in [5] is 163 µM (active).

As for `CCN(C(=O)COC(=O)/C=C/c1cnc2ccccc2n1)c1ccccc1`, the concentration for a half-maximal effect (EC50) is 0.49 µM (active) in [2], > 120 µM (not active) in the data set with H4 and > 120 µM (not active) in data set [3].

Consider `Cn1c(C(=O)N2COCC2(C)C)cc2c(=O)n3ccccc3nc21`, for which, at Cytochrome P450 2C9, the concentration at half-maximal activity (AC50) was 5.01 µM (inconclusive). The EC50 is 12 µM (active) in [2], 61.7 µM (active) in the data set on H4 and 17.2 µM (active) in [3].

For `Cc1cnc(NC(=O)CN2CCN(c3ccccc3F)CC2)s1`, the half-maximal inhibitory concentration (IC50) in [5] is 150 µM (active).

Regarding `COc1ccc(-n2c(=O)c(-c3ccccc3)nc3cncnc32)cc1`, the half-maximal activity concentration (AC50) on Cytochrome P450 2C19 (read-out: AC50) was 39.8 µM (inconclusive); at Cytochrome P450 3A4, 15.8 µM (inconclusive); on Cytochrome P450 2D6, 25.1 µM (inconclusive).

Regarding `CN(C)c1ccc(-c2cc([C@H]3[C@@H]4C=CCC[C@@]4(C)C(=O)N3Cc3ccccc3)ccc2F)cc1`, in [4], the cytotoxic concentration (CC50) is 13.1 µM (active). Also, the AC50 in data set [6] is 2.28 µM (active).

As to `CCOc1cc(N2CCOCC2)c(OCC)cc1NCC(=O)N1CCN(Cc2ccccc2)CC1`, in data set [5], the half-inhibitory concentration (IC50) is 64.2 µM (active).

With `O=C1CC(NCCC2=CCCCC2)C(=O)N1c1cccc(Cl)c1Cl` (stereo not drawn), the concentration at half-maximal activity (AC50) on Cytochrome P450 1A2, on Cytochrome P450 3A4 and on Cytochrome P450 2D6 was 15.8 µM (inconclusive) throughout.

In the case of `CC1CCC(NC(=O)c2cc3c(=O)n(C)c4ccccc4c3n2C)CC1` (stereo not drawn), the results for the half-maximal effective concentration (EC50) (in [2]; with H4; in [3]) were 14.3 µM (active), > 120 µM (not active) and 7.84 µM (active), respectively.

For the molecule `CCN(CCNC(=O)C1CCN(S(=O)(=O)c2cccc3nsnc23)CC1)c1ccccc1`, the concentration at half-maximal activity (AC50) in data set [1] was 4.69 µM (active).

Turning to `O=C(CN1CCCCCC1)Nc1nc2ccccc2s1`, the 50% inhibitory concentration (IC50) in [5] is 173 µM (active).

As to `Oc1c(/C=N/c2ccc(Cl)cn2)sc2ccccc12`, the figures for the 50% effective concentration (EC50) (in data set [2]; in the data set with H4; in data set [3]) were 12.3 µM (active), 15.5 µM (active) and 15.4 µM (active), respectively.

As for `CCN1CCN(CC(=O)N/N=C/c2cc(Br)cs2)CC1`, the half-maximal inhibitory concentration (IC50) in data set [5] is 94.2 µM (active).

For `CCOC(=O)C1=C(C)N=c2s/c(=C/c3ccc(OCC(=O)O)cc3)c(=O)n2C1c1ccc(F)cc1` (stereo not drawn), the half-maximal cytotoxic concentration (CC50) in [4] is 39.8 µM (active).

As for `Cc1ccc(/C=c2/sc3n(c2=O)CCCN=3)o1`, the half-maximal effective concentration (EC50) is 0.161 µM (active) in data set [2] and 11.8 µM (active) with H4.

As to `CCN(CC)CCNC(=O)c1cc(Cl)c(N)cc1OC` [METOCLOPRAMIDE], the AC50 is 15.8 µM (inconclusive) on Cytochrome P450 1A2; 6.31 µM (inconclusive) and 15.8 µM (inconclusive) at Cytochrome P450 2D6.
